{"source": "patent US6900234B1", "about": "“Synergistic therapeutic compositions and methods” (Pfizer, Inc., priority 1990, dated 2005)", "key": {"Male Hartley guinea pigs": {"test_system": "Male Hartley guinea pigs", "test": "Mean arterial pressure lowering (AOC-MAP) in conscious sodium-depleted guinea pigs after i.v. dosing", "format": "in vivo, guinea pig", "parameters": "unit not given here", "description": "Male Hartley guinea pigs weighing between 250 and 300 g were obtained from Charles River Laboratories, Lakeview, N.J. The guinea pigs were allowed to acclimate to their environment for at least two weeks. Then, they were placed on a low sodium diet (Purina Modified Guinea Pig Chow, no sodium added) for 14 days and were given injections of furosemide (Lasix® 2 mg/kg, i.m.) on three non-consecutive days. At least 24 hours prior to experimentation, the animals were anesthetized with xylazine (Rompun®, 10 mg/kg, s.c.) and ketamine (Vetalar®, 80 mg/kg, i.m.) and, using aseptic technique, cannulae (PE-50) were implanted into the aorta via the right carotid artery for direct measurement of mean arterial pressure (MAP). Cannulae (PE-50) were also placed into the left jugular vein for intravenous compound administration. Both catheters were exteriorized at the intrascapular region of the animal's back and flushed with a heparinized dextrose solution. To prevent the formation of clots, each cannula was filled with heparin at a concentration of 1000 units/ml. After surgery, an antibacterial, trimethoprim/sulfamethoxazole (Di-Trim®, 30 mg/kg, s.c.), was given to the animals. The animals were allowed to recover with water and no-sodium chow administered ad libitum. On the day of the experiment, each guinea pig was given an additional injection of furosemide (6 mg/kg, i.m.) to accelerate sodium loss and was placed in,a sound-proof, ventilated box with one-way glass for observation. Mean arterial pressure was monitored with a Statham 23DB strain gauge pressure transducer previously calibrated using a mercury manometer. The arterial pressure waveform and derived heart rate were continuously recorded on a Grass Model 7D osciliograph. Arterial pressure waveform samples were obtained approximately every 20 seconds using an IBM PS/2 model 30 computer equipped with a custom algorithm designed to calculate mean arterial pressure from the integrated waveform. Values were obtained for a period of at least one hour prior to and 2 hours (usually 4 hours) after dosing. The test compounds were infused intravenously followed by a 250 μl flush with heparinized dextrose solution.\nDose response curves for the renin inhibitor (RI) (0.3 to 3.0 mg/kg, i.v.) and captopril (0.03 to 1.0 mg/kg, i.v.) were obtained (n=4 to 8) in order to quantitate baseline responses to each drug. In experiments where the renin inhibitor and captopril were co-administered, the renin inhibitor was given first immediately followed by captopril. Doses of renin inhibitor and angiotensin converting enzyme inhibitor, when given together, were chosen on the basis of causing submaximal hypotensive effects. Therefore, the contributory effect of each drug could be quantitated by integration and compared to the expected effect to determine whether additive or synergistic responses had occurred.\nEmploying the procedure described above, the changes in mean arterial pressure (ΔMAP) for the renin inhibitor (RI), the ACE inhibitor (captopril) and the renin inhibitor (RI), plus the ACE inhibitor (captopril) were obtained for various doses and are shown in Table I, below. The AOC-MAP is the area over the dose response curve for each dose calculated using the trapezoidal method.\nThe data in Table I were obtained by averaging the Δ MAP of all animals for each dose prior to calculating the AOC-MAP. When the data contained in Table I was reviewed for the purpose of calculating the AOC-MAP by averaging the area over the dose response curve for each animal per dose, it was discovered that the AOC-MAP for 0.5 mg/kg RI plus 0.05 mg/kg captopril inadvertently reflected the data based on only three of the six subject test animals. Shown below in Table II are the AOC-MAP data for the experiments reported in Table I, which data is now the result of determining the area over the dose response curve for each animal per dose and averaging the AOC-MAP, as well as determining the standard deviation. […]"}, "[1]": {"conditions": "reported in Oldham et al., J. Cardiovasc. Pharmacol. 6: 672-677 (1984); cited from earlier work"}, "[2]": {"conditions": "Table III, 0.30 mg/kg i.v., average of the area for each animal per dose"}, "[3]": {"conditions": "Table III, 1.0 mg/kg i.v., average of the area for each animal per dose"}, "[4]": {"conditions": "Table I, 1.0 mg/kg i.v., ΔMAP of all animals averaged per dose before calculating the area"}, "[5]": {"conditions": "Table II, 1.0 mg/kg i.v., average of the area for each animal per dose"}}}
{"smiles": "CCCCc1nc(Cl)c(CO)n1Cc1ccc(-c2ccccc2-c2nn[nH]n2)cc1", "note": "[Dup 753]", "values": [{"measurement": "AOC-MAP", "setting": "Male Hartley guinea pigs; [2]", "value": "−125"}, {"measurement": "AOC-MAP", "setting": "Male Hartley guinea pigs; [3]", "value": "−549"}, {"measurement": "AOC-MAP", "setting": "Male Hartley guinea pigs; Table III, 3.0 mg/kg i.v., average of the area for each animal per dose", "value": "−1575"}]}
{"smiles": "CSCC(NC(=O)C(Cc1ccccc1)NC(=O)N1CCOCC1)C(=O)NC(CC1CCCCC1)C(O)C(=O)OC(C)C", "note": "(stereo not drawn) [RI, [alpha-R[alpha-R*,beta-S*(S*,S*)]-alpha-hydroxy-beta-[[2-[[2-(4-morpholin-1-carboxamido)-1-oxo-3-phenylpropyl]amino[-3-methylthio-1-oxo-propyl]amino]-cyclohexanebutanoic acid, isopropyl ester]", "values": [{"measurement": "AOC-MAP", "setting": "Male Hartley guinea pigs; Table I, 0.3 mg/kg i.v., ΔMAP of all animals averaged per dose before calculating the area (trapezoidal)", "value": "−256"}, {"measurement": "AOC-MAP", "setting": "Male Hartley guinea pigs; [4]", "value": "−496"}, {"measurement": "AOC-MAP", "setting": "Male Hartley guinea pigs; Table I, 3.0 mg/kg i.v., ΔMAP of all animals averaged per dose before calculating the area", "value": "−1829"}, {"measurement": "AOC-MAP", "setting": "Male Hartley guinea pigs; Table II, 0.3 mg/kg i.v., average of the area for each animal per dose", "value": "−310"}, {"measurement": "AOC-MAP", "setting": "Male Hartley guinea pigs; [5]", "value": "−568"}, {"measurement": "AOC-MAP", "setting": "Male Hartley guinea pigs; Table II, 3.0 mg/kg i.v., average of the area for each animal per dose", "value": "−1990"}]}
{"smiles": "C[C@H](CS)C(=O)N1CCC[C@H]1C(=O)O", "note": "[captopril]", "values": [{"measurement": "AOC-MAP", "setting": "Male Hartley guinea pigs; Table I, 0.03 mg/kg i.v., ΔMAP of all animals averaged per dose before calculating the area", "value": "−99"}, {"measurement": "AOC-MAP", "setting": "Male Hartley guinea pigs; Table I, 0.10 mg/kg i.v., ΔMAP of all animals averaged per dose before calculating the area", "value": "−289"}, {"measurement": "AOC-MAP", "setting": "Male Hartley guinea pigs; Table I, 0.30 mg/kg i.v., ΔMAP of all animals averaged per dose before calculating the area", "value": "−1263"}, {"measurement": "AOC-MAP", "setting": "Male Hartley guinea pigs; [4]", "value": "−3272"}, {"measurement": "AOC-MAP", "setting": "Male Hartley guinea pigs; Table II, 0.03 mg/kg i.v., average of the area for each animal per dose", "value": "−96"}, {"measurement": "AOC-MAP", "setting": "Male Hartley guinea pigs; Table II, 0.10 mg/kg i.v., average of the area for each animal per dose", "value": "−283"}, {"measurement": "AOC-MAP", "setting": "Male Hartley guinea pigs; Table II, 0.30 mg/kg i.v., average of the area for each animal per dose", "value": "−1036"}, {"measurement": "AOC-MAP", "setting": "Male Hartley guinea pigs; [5]", "value": "−3272"}, {"measurement": "AOC-MAP", "setting": "Male Hartley guinea pigs; Table III, 0.03 mg/kg i.v., average of the area for each animal per dose", "value": "−96"}, {"measurement": "AOC-MAP", "setting": "Male Hartley guinea pigs; Table III, 0.10 mg/kg i.v., average of the area for each animal per dose", "value": "−269"}, {"measurement": "AOC-MAP", "setting": "Male Hartley guinea pigs; [2]", "value": "−826"}, {"measurement": "AOC-MAP", "setting": "Male Hartley guinea pigs; [3]", "value": "−3272"}, {"measurement": "hypotensive effect of captopril injected during H77 infusion", "setting": "[1]", "value": "small additional hypotensive effect"}]}
